Reference: patent publication US20220119446A1, “BIOMARKERS AND TREATMENT OF NEURONAL INJURY AND NEURODEGENERATION” (Board of Supervisons of Louisiana State University and …, priority 2018, published 2022)
“Also recorded” adds a separate entry of the source. * marks the point of attachment. Boc = CC(C)(C)OC(=O)*

Tests used:
Wnt5a [1] = test: Microarray of Wnt5a expression in 15-LOX-1 deficient ARPE-19 cells under uncompensated oxidative stress (UOS); format: cell-based, human; details: UOS=600 μM H2O2 plus 10 ng/ml TNFα, 6 hours, UOS alone gives 2-fold increase
Procedure: Primary human RPE cultures can be from human eyecups, provided by the National Disease Research Interchange (NDRI), as described previously (Calandria et al. 2012). hRPE cells can be grown and maintained in high-glucose MEM (Life Technologies Corporation, Carlsbad, Calif.) supplemented with 10% FBS (Tissue Culture Biologicals, Inc., Long Beach, Calif.), 5% NCS, non-essential amino acids, Penicillin-Streptomycin (100 U/mL), human fibroblast growth factor (FGF) 10 ng/mL and incubated at 37° C. with a constant supply of 5% CO2. ARPE-19 cells, can be plated and grown in DMEM/F-12 containing 10% FBS and 1× penicillin/streptomycin at 37° C., 5% CO2, 99% relative humidity for 24 h. Silenced 15-LOX-1 cells, described in detail elsewhere (Calandria et al. 2009), are derived from ARPE-19 by stably silencing 15-LOX-1. 15-LOX-1 deficient cells can be maintained in the same medium as ARPE-19 with the addition of 500 μg/mL Geneticin (Life Technologies Corporation, Carlsbad, Calif.). […] Transfection efficiency can be assessed using an expression plasmid-carrying GFP ORF or by including a negative control siRNA conjugated with Alexa Fluor® 488 or 546 (QIAGEN, Hilden, Germany). siRNA efficiency can be assessed using SYBR green-based real-time PCR using the primers of Table 2 and the percentage of silencing achieved (FIG. 7). […]

Wnt5a [2] = test: Transient MCAo: Wnt5a protein in plasma; format: in vivo; details: rat MCAo, days 1, 3 and 7 post-surgery
Procedure: In various exemplary embodiments, docosahexaenoic acid (DHA; 5 mg/kg, Cayman, Ann Arbor, Mich., USA), Box5 (1 mg/kg, Millipore-Sigma, Burlington, Mass.) or vehicle (0.9% saline) is administered intravenously into the femoral vein at a constant rate over 3 min using an infusion pump at 3 h after onset of MCAo. In embodiments, for western-blot study, rats are sacrificed on days 1, 3, or 7; for real-time PCR study, rats are sacrificed on days 1, 2, or 3.
A, Timeline of MCAo. DHA, Box5 or saline were administered at 1 h after 2 h of MCAo and rats were sacrificed on days 1, 2, 3 or 7. B, Effect of DHA on neurological recovery. Total score (normal score=0, maximal deficit=12), tactile placing (dorsal, lateral, proprioceptive reactions; normal score=0, maximal deficit=2) after MCAo. DHA or saline was administered at 1 h after 2 h of MCAo and rats sampled on days 1, 2, 3 or 7. […] C, Total neurological score at days 1, 3 and 7; D, MRI quantification at day 7 of the lesion volume depicting total, core and penumbra and; E, representative coronal sections showing T2 weighted image (T2WI), the defined core and penumbra region (red and blue, respectively) in the second column; and a 3D reconstruction of the lesion. […] J, Quantification of Wnt5a and NF-κB linked gene expression in MCAo. […] The mRNA were measured using SYBR green RT-PCR. […]

Row | Compound | Wnt5a expression (Wnt5a [1]) | plasma (blood) Wnt5a protein (Wnt5a [2])
1 | CC/C=C\C[C@H](O)\C=C/C=C/C=C/[C@H](O)C/C=C\C/C=C\CCC(=O)O [NPD1, 10R,17S-dihydroxy-docosa-4Z,7Z,11E,13E,15Z,19Z-hexaenoic acid] | brought down to below controls; also recorded: reversed | –
2 | t-Boc-NH-Met-Asp-Gly-Cys-Glu-Leu-CO2H (Boc-MDGCEL-OH) [Box5] | – | failed to reduce the plasma Wnt5a content; also recorded: did not affect the levels of Wnt5a; also recorded: did not affect Wnt5a abundance
